Paper PMC10535292, “Quinoline- and Isoindoline-Integrated Polycyclic Compounds as Antioxidant, and Antidiabetic Agents Targeting the Dual Inhibition of α-Glycosidase and α-Amylase Enzymes” (Pharmaceuticals, 2023)
Like-named read-outs stand apart in the source and are kept apart here.

Legend:
[1] = DPPH free radical scavenging assay; conditions: mean ± SE, triplicate; read-out: EC50 Radical Scavenging Activities DPPH
Experimental: (§1) The ability of the samples to scavenge free radicals was evaluated using a range of in vitro tests, including DPPH, ABTS, and superoxide anion radicals, with BHA utilized as a positive control.
(§2) The DPPH free radical, ABTS cation radical, and superoxide anion radical scavenging approaches were used in the antioxidant activity of the present study. The capacity for the radical scavenging was represented by EC50 values. […] Every sample was observed three times. Butylated hydroxyanisole (BHA) is the positive control drug in this evaluation of antioxidant activity.

[2] = ABTS cation radical scavenging assay; conditions: mean ± SE, triplicate; read-out: EC50 Radical Scavenging Activities ABTS
Experimental: as §1, §2

[3] = Superoxide anion radical scavenging assay; conditions: mean ± SE, triplicate; read-out: EC50 Radical Scavenging Activities Superoxide Anion Radicals
Experimental: as §1, §2

[4] = molecular target: T1, type-VI B porcine pancreatic α-amylase (Sus scrofa, UniProt P00690); assay: α-Amylase inhibition with soluble starch (1%); format: biochemical; conditions: mean ± SE, triplicate
T1 construct: type-VI B porcine pancreatic α-amylase; from tissue; host or cells: porcine pancreas (preparation grade 'type-VI B')
T1 sequence (P00690 16-511): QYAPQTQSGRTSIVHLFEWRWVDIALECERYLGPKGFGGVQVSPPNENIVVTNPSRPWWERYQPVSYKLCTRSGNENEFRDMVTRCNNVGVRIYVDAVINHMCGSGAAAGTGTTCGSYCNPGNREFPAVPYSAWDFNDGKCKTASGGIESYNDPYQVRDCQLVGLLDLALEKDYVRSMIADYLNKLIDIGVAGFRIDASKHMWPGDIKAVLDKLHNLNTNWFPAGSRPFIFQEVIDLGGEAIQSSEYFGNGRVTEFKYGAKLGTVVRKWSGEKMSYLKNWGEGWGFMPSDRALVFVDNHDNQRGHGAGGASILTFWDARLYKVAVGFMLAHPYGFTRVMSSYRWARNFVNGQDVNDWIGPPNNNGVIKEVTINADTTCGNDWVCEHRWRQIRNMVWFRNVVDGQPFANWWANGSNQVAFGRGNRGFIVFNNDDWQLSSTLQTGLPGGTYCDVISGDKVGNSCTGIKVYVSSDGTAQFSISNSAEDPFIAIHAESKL
Experimental: Moreover, similar tests were carried out to reveal if the synthesized molecules inhibited α-amylase, another important carbohydrate-hydrolyzing enzyme.
(§3) Inhibitory activity of α-amylase and α-glycosidase was expressed as percent inhibition, calculated using the following formula. Inhibition (%) = (A control − A sample)/A control × 100
(§4) The IC50 values were obtained from a graph that correlated the percentage of the inhibition of each sample with its concentration. Each experiment included three replicates, along with appropriate blanks.

yeast α-glycosidase [5] = molecular target: T2, yeast α-glycosidase (Saccharomyces cerevisiae, UniProt P38158); assay: biochemical
Description: as §3, §4

yeast α-glycosidase [6] = molecular target: T2, yeast α-glycosidase; assay: Kinetic analysis of α-glycosidase inhibition (Lineweaver–Burk, Dixon plots); format: biochemical
Experimental: (§5) For the kinetic studies, α-glycosidase and α-amylase were incubated with designated concentrations of the substrate pNPG and starch, respectively, in the absence (control) or presence of IC20-, IC40-, and IC60-inhibitory concentrations of 7d. The mode of inhibition, [Km], and [Vmax] values were determined by graphical means using Lineweaver–Burk plots. […] The kinetic results established that the maximum velocity (Vmax) of the 7d reaction (with increasing concentrations) remained constant and was catalyzed by α-glycosidase and α-amylase (Table 3).
(§6) The enzyme kinetics of the compounds’ inhibition of the glycosidase activity were examined using different concentrations of the substrate against the IC20, IC40, and IC60 inhibitory concentrations of the compounds, as previously reported. The type of inhibition, Km, and Vmax were calculated using a double-reciprocal plot of the substrate concentration and velocity (1/V against 1/[pNPG]). The inhibitory constant (Ki) was also determined using the Dixon plot.

α-amylase = molecular target: T3, α-amylase (Sus scrofa, UniProt P00690); assay: Kinetic analysis of α-amylase inhibition (Lineweaver–Burk, Dixon plots); format: biochemical, porcine
T3 construct: type-VI B porcine pancreatic α-amylase; from tissue; host or cells: porcine pancreas (preparation grade 'type-VI B')
T3 sequence (P00690 16-511): T1 sequence (P00690 16-511)
Experimental: as §5, §6

T2 sequence (P38158 whole entry): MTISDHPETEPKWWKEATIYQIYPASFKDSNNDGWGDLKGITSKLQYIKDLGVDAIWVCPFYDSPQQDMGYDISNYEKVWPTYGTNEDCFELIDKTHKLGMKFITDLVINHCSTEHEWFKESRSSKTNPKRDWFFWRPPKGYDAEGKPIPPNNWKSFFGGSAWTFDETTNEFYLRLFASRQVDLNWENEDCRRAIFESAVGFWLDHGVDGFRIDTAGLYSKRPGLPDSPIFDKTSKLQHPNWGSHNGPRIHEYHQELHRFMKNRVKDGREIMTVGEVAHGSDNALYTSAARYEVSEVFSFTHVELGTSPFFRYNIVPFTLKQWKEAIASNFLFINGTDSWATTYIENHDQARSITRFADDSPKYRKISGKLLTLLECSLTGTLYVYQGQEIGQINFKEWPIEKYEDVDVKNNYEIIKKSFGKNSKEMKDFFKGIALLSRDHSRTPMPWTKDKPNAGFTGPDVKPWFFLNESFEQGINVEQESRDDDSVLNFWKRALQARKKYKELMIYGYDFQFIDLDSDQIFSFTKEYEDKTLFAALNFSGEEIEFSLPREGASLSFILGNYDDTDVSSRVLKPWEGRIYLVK

SMILES | EC50 [1] [µM] | EC50 [2] [µM] | EC50 [3] [µM] | IC50 [4] [µM] | IC50 (yeast α-glycosidase [5]) [µM] | melting point [°C] | further results
N#Cc1c(-c2ccccc2)cc(N2C(=O)c3ccccc3C2=O)nc1N [compound 7a, 2-Amino-6-(1,3-dioxoisoindolin-2-yl)-4-phenylnicotinonitrile] | 1990 ± 90 | 2250 ± 220 | 2250 ± 660 | 3500 ± 1000 | 1780 ± 60 | 167 to 169 | 
N#Cc1c(-c2ccc([N+](=O)[O-])cc2)cc(N2C(=O)c3ccccc3C2=O)nc1N [7b, 2-Amino-6-(1,3-dioxoisoindolin-2-yl)-4-(4-nitrophenyl)nicotinonitrile] | 2000 ± 150 | 2600 ± 770 | 2300 ± 1990 | 1500 ± 1500 | 1050 ± 880 | 153 to 155 | 
N#Cc1c(-c2ccc(Cl)c(Cl)c2O)cc(N2C(=O)c3ccccc3C2=O)nc1N [compound 7d, 2-Amino-4-(3,4-dichloro-2-hydroxyphenyl)-6-(1,3-dioxoisoindolin-2-yl)nicotinonitrile] | 650 ± 30 | 520 ± 250 | 930 ± 120 | 210 ± 60 | 70 ± 100 |  | IC20 (yeast α-glycosidase [6]): 30 µM; Ki (dissociation constant) (yeast α-glycosidase [6]; α-glycosidase, Dixon plot, mean ± SE): 0.47 mg; Mode of Inhibition (yeast α-glycosidase [6]; α-glycosidase, Lineweaver–Burk plot): competitive inhibition; 1/Vmax (reciprocal maximum velocity) (yeast α-glycosidase [6]; α-glycosidase, treatment IC20 0.03 μg): 28.82 10^3 (µM/min)^−1; 1/Vmax (reciprocal maximum velocity) (yeast α-glycosidase [6]; α-glycosidase, treatment IC40 0.06 μg): 29.00 10^3 (µM/min)^−1; 1/Vmax (reciprocal maximum velocity) (yeast α-glycosidase [6]; α-glycosidase, treatment IC60 0.08 μg): 29.29 10^3 (µM/min)^−1; Ki (dissociation constant) (α-amylase; Dixon plot, mean ± SE): 0.75 mg; Mode of Inhibition (α-amylase; Lineweaver–Burk plot): competitive inhibition; IC20 (α-amylase; inhibitory concentration used in kinetics): 80 µM; 1/Vmax (reciprocal maximum velocity) (α-amylase; treatment IC20 0.08 μg): 13.01 10^3 (µM/min)^−1; 1/Vmax (reciprocal maximum velocity) (α-amylase; treatment IC40 0.16 μg): 13.90 10^3 (µM/min)^−1; 1/Vmax (reciprocal maximum velocity) (α-amylase; treatment IC60 0.25 μg): 13.15 10^3 (µM/min)^−1
CC(=NNC(=O)COc1cccc2cccnc12)c1ccc(N2C(=O)c3ccccc3C2=O)cc1 [compound 3, N’-(1-(4-(1,3-Dioxoisoindolin-2-yl)phenyl)ethylidene)-2-(quinolin-8-yloxy)acetohydrazide] | 1600 ± 1020 | 1350 ± 1100 | 1100 ± 550 | 910 ± 1550 | 470 ± 350 | 211 to 213 | 
N#Cc1c(-c2ccccc2O)nn(C(=O)COc2cccc3cccnc23)c1N [4c, 5-Amino-3-(2-hydroxyphenyl)-1-(2-(quinolin-8-yloxy)acetyl)-1H-pyrazole-4-carbonitrile] | 4550 ± 1570 | 7860 ± 550 | 5950 ± 1050 | 1600 ± 770 | 1110 ± 740 | 157 to 159 | 
COc1ccc(O)c(C(C)(C)C)c1 [BHA, Butylated hydroxyanisole, reference compound] | 800 ± 320 | 640 ± 310 | 950 ± 170 |  |  |  | 
N#Cc1c(-c2ccc([N+](=O)[O-])cc2)nn(C(=O)COc2cccc3cccnc23)c1N [4a, 5-Amino-3-(4-nitrophenyl)-1-(2-(quinolin-8-yloxy)acetyl)-1H-pyrazole-4-carbonitrile] | 1500 ± 770 | 1300 ± 1000 | 1110 ± 270 | 720 ± 510 | 240 ± 50 | 157 to 159 | 
N#Cc1c(-c2ccc(Cl)cc2)nn(C(=O)COc2cccc3cccnc23)c1N [compound 4b, 5-Amino-3-(4-chlorophenyl)-1-(2-(quinolin-8-yloxy)acetyl)-1H-pyrazole-4-carbonitrile] | 5000 ± 250 | 4750 ± 420 | 4500 ± 2000 | 1550 ± 1670 | 990 ± 330 | 163 to 165 | 
N#Cc1c(-c2ccccc2)cc(N2C(=O)c3ccccc3C2=O)[nH]c1=O [compound 8a, 6-(1,3-Dioxoisoindolin-2-yl)-2-oxo-4-phenyl-1,2-dihydropyridine-3-carbonitrile] | 3250 ± 1230 | 10000 ± 1170 | 5780 ± 3010 | 880 ± 360 | 1000 | 216 to 218 | 
N#Cc1c(-c2ccc(Cl)c(Cl)c2O)cc(N2C(=O)c3ccccc3C2=O)[nH]c1=O [8d, 4-(3,4-Dichloro-2-hydroxyphenyl)-6-(1,3-dioxoisoindolin-2-yl)-2-oxo-1,2-dihydropyridine-3-carbonitrile] | 5050 ± 2220 | 9990 ± 1890 | 5220 ± 850 | 5000 ± 3000 | 2220 ± 110 | 233 to 235 | 
NNC(=O)COc1cccc2cccnc12 [compound 1, 2-(Quinolin-8-yloxy)acetohydrazide] | 4650 ± 2250 | 4500 ± 1140 | 4500 ± 1110 | 900 ± 1040 |  | 137 to 139 | IC50 (yeast α-glycosidase [5]; mean ± SE, triplicate, read-out: IC50 α-Glycosidase): 500 ± 660 µM
N#Cc1c(-c2ccc([N+](=O)[O-])cc2)cc(N2C(=O)c3ccccc3C2=O)[nH]c1=O [8b, 6-(1,3-Dioxoisoindolin-2-yl)-4-(4-nitrophenyl)-2-oxo-1,2-dihydropyridine-3-carbonitrile] | 4500 ± 790 | 9880 ± 2250 | 6000 ± 2450 | 1600 ± 830 | 1010 ± 40 | 221 to 223 | 
S=C1N=NC(COc2cccc3cccnc23)=N1 [compound 6, 5-((Quinolin-8-yloxy)methyl)-3H-1,2,4-triazole-3-thione] | 3330 ± 860 | 8010 ± 330 | 6100 ± 1540 | 3650 ± 2470 | 1500 ± 2000 | 187 to 189 | 
N#Cc1c(-c2ccccc2O)cc(N2C(=O)c3ccccc3C2=O)[nH]c1=O [8c, 6-(1,3-Dioxoisoindolin-2-yl)-4-(2-hydroxyphenyl)-2-oxo-1,2-dihydropyridine-3-carbonitrile] | 2500 ± 1110 | 2440 ± 670 | 5150 ± 770 | 3550 ± 1550 | 1800 ± 720 | 205 to 207 | 
N#Cc1c(-c2ccccc2O)cc(N2C(=O)c3ccccc3C2=O)nc1N [compound 7c, 2-Amino-6-(1,3-dioxoisoindolin-2-yl)-4-(2-hydroxyphenyl)nicotinonitrile] | 1000 ± 850 | 1230 ± 480 | 1000 | 260 ± 320 | 110 ± 40 | 160 to 162 | 
